Data reported in patent US20030023101A1, “Method for production of maleic anhydride” (priority 2001, published 2003).

Experiments:
[1] = Maximum dissolving concentration of maleic acid in the solvent (Referential Example 2); assay type: physicochemical; conditions: maleic acid as solute in 80 g solvent, 20° C., insoluble = residue even at 0.01 g
Method: (§1) In a tightly closable glass vessel measuring 100 ml in inner volume and furnished with a lid, 80 g of a given solvent kept at a temperature of 20° C. was placed and stirred with a stirrer and meanwhile maleic acid or fumaric acid of the special reagent grade as defined in the paragraph covering the determination of maximum dissolution concentration was added to the stirred solvent. The state of solution consequently assumed was visually confirmed. When the solute left any residue behind in the solution even after one hour's stirring, the sample was reported as insoluble. When the residue of the solute was found, the confirmation of the maximum dissolving concentration mentioned above was repeated, with the quantity of addition per round decreased. The minimum quantity of addition was set at 0.01 g. Thus, the maximum quantity of dropwise addition (weight of solute) which was recognized to have given rise to no residue of elute was determined and computed as the maximum dissolution concentration in 80 g of a given solvent. Specifically, the magnitude found by the following formula,
(§2) Maximum dissolving concentration (% by weight)={Solute/(Solute+Solvent)}×100
(§3) is the maximum dissolving concentration contemplated by this invention. When the elute left any residue behind in the solution even at the minimum quantity of dropwise addition of 0.01 g ([…]), the sample was reported as insoluble. Incidentally, the maximum dissolution concentration was measured at a solution temperature of 20° C.

[2] = 20° C., normal pressure (1013 hPa); Chemical Handbook (Maruzen), Beilstein Online; cited from earlier work
[3] = Maximum dissolving concentration of organic solvent in water (Referential Example 1); assay type: physicochemical; conditions: solvent as solute in 80 g purified water, 20° C., visual observation
Method: One species of organic solvent or a mixture of two or more species of solvent to be used in this invention was selected by the following method. In a tightly closable glass vessel measuring 100 ml in inner volume and furnished with a lid, 80 g of purified water kept at a temperature of 20° C. was placed and stirred with a stirrer and meanwhile a given organic solvent or solvent mixture was added dropwise to the stirred water. The state of solution consequently assumed after one hour's standing was visually observed. When any residue of the solute was found in the solution, the confirmation of the solubility mentioned above was repeated, with the quantity of dropwise addition per round decreased. The minimum quantity of the organic solvent or the solvent mixture as the solute to be used for the dropwise addition was set at 0.02 g. […] Specifically, the magnitude found by the following formula,
as §2
is the maximum dissolving concentration contemplated by this invention. […] The present example concerns computation of the maximum dissolving concentration of a given solute in 80 g of a solvent in accordance with the formula mentioned above. The maximum dissolving concentration was determined at a solution temperature of 20° C. Incidentally, when two or more species of organic solvent are mixed and used in the distillation for azeotropic dehydration, the maximum dissolving concentration of the mixture is determined by the method described above.

[4] = Maximum dissolving concentration of fumaric acid in the solvent (Referential Example 2); assay type: physicochemical; conditions: fumaric acid as solute in 80 g solvent, 20° C., insoluble = residue even at 0.01 g
Method: as §1, §2, §3

Structure (SMILES) | Maximum dissolving concentration in solvent, Maleic acid [1] | Maximum dissolving concentration of the azeotropic solvent (1) in water [2] | Maximum dissolving concentration in water [3] | Maximum dissolving concentration in solvent, Fumaric acid [4] | further results
CC(C)C(=O)C(C)C [DIPK, diisopropylketone] | 1.22 % by weight | 0.43 % by weight | 0.41 % by weight | 0.02 % by weight | 
CCCCCC(C)=O [2-heptanone] |  | 0.44 % by weight |  |  | 
CC(=O)CC(C)C [MIBK, methyl isobutylketone] | 4.14 % by weight | 1.91 % by weight | 1.85 % by weight | 0.14 % by weight | 
Cc1ccccc1C [o-Xylene, o-xylene] | Insoluble |  | 0.02 % by weight | Insoluble | Maximum dissolving concentration in solvent, Maleic acid ([1]; listed as o-xylene): did not dissolve; Maximum dissolving concentration in water ([3]; listed as o-xylene): low solubility in water; Maximum dissolving concentration in solvent, Fumaric acid ([4]; listed as o-xylene): did not dissolve
CCCCCOC(C)=O [amyl acetate] |  | 0.25 % by weight |  |  | 
CCCCC(CC)CO (stereo not drawn) [2-ethyl-1-hexnol] |  | 0.10 % by weight |  |  | 
CCCCC(C)=O [2-hexanone] |  | 1.75 % by weight |  |  | 
C=CCOC(C)=O [allyl acetate] |  | 2.8 % by weight |  |  | 
CCC(=O)CC [3-pentanone] |  | 4.6 % by weight |  |  | 
CCCC(=O)CC [3-hexnaone] |  | 1.57 % by weight |  |  | 
CC(C)CC(=O)CC(C)C [DIBK, diisobutyl ketone] | 0.62 % by weight |  | 0.05 % by weight | Insoluble | 
